Values after ≈ are worked out from the molar mass of the structure shown. Active and inactive are the calls of the source. The rule behind the calls is not given here.
Experiments:
[1] = system: Staphylococcus aureus; test: Antibacterial activity against vancomycin-intermediate resistant Staphylococcus aureus ATCC 700699 assessed as reduction in microbial growth incubated for 24 hrs by broth microdilution method; format: functional
[2] = system: Enterococcus faecium; test: Antibacterial activity against glycopeptide-resistant Enterococcus faecium Efm-HS-0649 assessed as reduction in microbial growth incubated for 24 hrs by broth microdilution method; format: functional
[3] = system: Staphylococcus aureus; test: Antibacterial activity against vancomycin-intermediate resistant Staphylococcus aureus Mu 50 assessed as reduction in microbial growth incubated for 24 hrs by broth microdilution method; format: functional
[4] = system: Enterococcus faecalis; test: Antibacterial activity against Enterococcus faecalis EFA 20-1 assessed as reduction in microbial growth incubated for 24 hrs by broth microdilution method; format: functional
[5] = system: Enterococcus faecalis; test: Antibacterial activity against vancomycin-resistant Enterococcus faecalis VREfa 20-1 assessed as reduction in microbial growth incubated for 24 hrs by broth microdilution method; format: functional
[6] = system: Staphylococcus aureus; test: Antibacterial activity against methicillin-resistant Staphylococcus aureus USA300 assessed as reduction in microbial growth incubated for 24 hrs by broth microdilution method; format: functional
[7] = system: Enterococcus faecium; test: Potency index, ratio of daptomycin MIC to test compound MIC for antibacterial activity against glycopeptide-resistant Enterococcus faecium Efm-HS-0649; format: functional
[8] = system: Staphylococcus aureus; test: Antibacterial activity against methicillin-susceptible Staphylococcus aureus Newman ATCC 25904 assessed as reduction in microbial growth incubated for 24 hrs by broth microdilution method; format: functional
[9] = system: Staphylococcus aureus; test: Potency index, ratio of daptomycin MIC to test compound MIC for antibacterial activity against methicillin-susceptible Staphylococcus aureus Newman ATCC 25904; format: functional
[10] = system: Staphylococcus aureus; test: Induction of drug resistance against Staphylococcus aureus Newman ATCC 25904 assessed as fold increase in MIC after 15 days by broth microdilution method; format: functional; settings: time 15.0 day
[11] = system: Erythrocyte; test: Hemolytic activity in rat RBC at 400 ug/ml incubated for 1 hr; format: toxicity, cell-based; settings: dose 400 µg/ml
[12] = system: Staphylococcus aureus; test: Antibacterial activity against methicillin-susceptible Staphylococcus aureus clinical isolate 20-1 assessed as reduction in microbial growth incubated for 24 hrs by broth microdilution method; format: functional
[13] = Toxicity in ICR mouse excisional wound model infected with Staphylococcus aureus Newman ATCC 25904 assessed as survival at 20 mg/kg administered topically for 7 days; format: organism-based; settings: in vivo, topical_or_ocular, 168 h, route top, time 7 day
[14] = system: Staphylococcus aureus; test: Antibacterial activity against methicillin-resistant Staphylococcus aureus clinical isolate 20-2 assessed as reduction in microbial growth incubated for 24 hrs by broth microdilution method; format: functional
[15] = system: Staphylococcus aureus; test: Ratio of MIC for antibacterial activity against Staphylococcus aureus in presence of PG to MIC for antibacterial activity against Staphylococcus aureus; format: functional
[16] = Observed volume of distribution at steady state in CD-1 mouse at 1 mg/kg, iv measured up to 24 hrs by UPLC-MS analysis; format: ADME, organism-based; settings: in vivo, read-out: Vdss
[17] = Solubility of compound in deionized water at >10 mg/ml at room temperature; format: physicochemical; settings: buffer
[18] = system: Staphylococcus aureus; test: Potency index, ratio of daptomycin MIC to test compound MIC for antibacterial activity against methicillin-susceptible Staphylococcus aureus ATCC 29213; format: functional
[19] = system: Enterococcus faecium; test: Antibacterial activity against Enterococcus faecium EFM 20-1 assessed as reduction in microbial growth incubated for 24 hrs by broth microdilution method; format: functional
[20] = system: Staphylococcus aureus; test: Potency index, ratio of daptomycin MIC to test compound MIC for antibacterial activity against methicillin-susceptible Staphylococcus aureus clinical isolate 20-1; format: functional
[21] = system: Staphylococcus aureus; test: Antibacterial activity against Staphylococcus aureus infected in zebra fish model assessed as survival rate at 10 mg/kg, ip after 24 hrs by relative to control; format: functional
[22] = system: Enterococcus faecium; test: Potency index, ratio of daptomycin MIC to test compound MIC for antibacterial activity against Enterococcus faecium EFM 20-1; format: functional
[23] = system: Staphylococcus aureus; test: Antibacterial activity against methicillin-resistant Staphylococcus aureus clinical isolate 20-3 infected in iv dosed Kunming mouse model assessed as increase in survival measured after 14 days; format: functional; settings: Clinical isolate 20-3, 336 h, time 14 day
[24] = system: HEK293; test: Cytotoxicity against HEK293 cells assessed as reduction in cell viability at 80 ug/ml after 72 hrs by CCK-8 assay relative to control; format: toxicity, cell-based; settings: human, hek293, 72 h, at 80 µg/mL
[25] = system: Staphylococcus aureus; test: Antibacterial activity against Staphylococcus aureus assessed as reduction in bacterial growth incubated for 16 to 24 hrs in presence of MHB medium by serial dilution method; format: functional; settings: time 16-24 hrs
[26] = system: Enterococcus faecalis; test: Potency index, ratio of daptomycin MIC to test compound MIC for antibacterial activity against Enterococcus faecalis EFA 20-1; format: functional
[27] = system: Staphylococcus aureus; test: Antibacterial activity against Staphylococcus aureus assessed as reduction in bacterial growth incubated for 16 to 24 hrs in presence of PG by serial dilution method; format: functional; settings: time 16-24 hrs
[28] = system: Staphylococcus aureus; test: Antibacterial activity against Staphylococcus aureus infected in zebra fish model assessed as survival rate at 10 mg/kg, ip after 8 hrs by relative to control; format: functional
[29] = Solubility of compound in saline at >10 mg/ml at room temperature; format: physicochemical; settings: buffer
[30] = system: Staphylococcus aureus; test: Antibacterial activity against Staphylococcus aureus assessed as reduction in bacterial growth incubated for 16 to 24 hrs in presence of CAMHB medium by serial dilution method; format: functional; settings: time 16-24 hrs
[31] = system: Staphylococcus aureus; test: Antimicrobial activity in Staphylococcus aureus Newman ATCC 25904 infected in ICR mouse excisional wound model assessed as decrease in bacterial growth at 20 mg/kg administered topically and measured after 24 hrs relative to control; format: functional; design: scale not given: the % may be the effect or the level left; settings: route top
[32] = Toxicity in ICR mouse excisional wound model infected with Staphylococcus aureus Newman ATCC 25904 assessed as change in weight at 20 mg/kg administered topically for 7 days; format: organism-based; settings: in vivo, topical_or_ocular, 168 h, route top, time 7 day
[33] = system: Staphylococcus aureus; test: Antibacterial activity against methicillin-susceptible Staphylococcus aureus ATCC 29213 assessed as reduction in microbial growth incubated for 24 hrs by broth microdilution method; format: functional
[34] = Half life in PBS at pH 7.2 to 7.4 at 37 degC for 24 hrs; format: ADME
[35] = system: Staphylococcus aureus; test: Antibacterial activity against methicillin-resistant Staphylococcus aureus clinical isolate 20-3 assessed as reduction in microbial growth incubated for 24 hrs by broth microdilution method; format: functional
[36] = system: Staphylococcus aureus; test: Ratio of MIC for antibacterial activity against Staphylococcus aureus in presence of MHB medium to MIC for antibacterial activity against Staphylococcus aureus CAMHB medium; format: functional
[37] = system: Enterococcus faecalis; test: Antibacterial activity against Enterococcus faecalis ATCC 29212 assessed as reduction in microbial growth incubated for 24 hrs by broth microdilution method; format: functional
[38] = system: Staphylococcus aureus; test: Antibacterial activity against methicillin-resistant Staphylococcus aureus clinical isolate 20-1 assessed as reduction in microbial growth incubated for 24 hrs by broth microdilution method; format: functional
[39] = system: Enterococcus faecalis; test: Potency index, ratio of daptomycin MIC to test compound MIC for antibacterial activity against Enterococcus faecalis ATCC 29212; format: functional
[40] = system: Staphylococcus aureus; test: Induction of membrane disruption in Staphylococcus aureus at 4 to 16 ug/ml incubated for 4 hrs by propidium iodide staining based flow cytometric analysis; format: functional, organism-based; settings: dose 4-16 µg/ml
[41] = system: Staphylococcus aureus; test: Antibacterial activity against Staphylococcus aureus assessed as reduction in bacterial growth incubated for 16 to 24 hrs by serial dilution method; format: functional; settings: time 16-24 hrs

Compound: CN[C@H](CC(C)C)C(=O)N[C@H]1C(=O)N[C@@H](CC(N)=O)C(=O)N[C@H]2C(=O)N[C@H]3C(=O)N[C@H](C(=O)N[C@H](C(=O)O)c4cc(O)cc(O)c4-c4cc3ccc4O)[C@H](O)c3ccc(c(Cl)c3)Oc3cc2cc(c3O[C@@H]2O[C@H](CO)[C@@H](O)[C@H](O)[C@H]2O[C@H]2C[C@](C)(N)[C@H](O)[C@H](C)O2)Oc2ccc(cc2Cl)[C@H]1O [VANCOMYCIN]
- MIC [1]: 8 µg/mL
- MIC [2]: > 128 µg/mL
- MIC [3]: 8 µg/mL
- MIC [4]: 1 µg/mL
- MIC [5]: > 16 µg/mL

Compound: CCCCCCCCCC(=O)N[C@@H](Cc1c[nH]c2ccccc12)C(=O)N[C@H](CC(N)=O)C(=O)N[C@@H](CC(=O)O)C(=O)N[C@@H]1C(=O)NCC(=O)N[C@@H](CCCN)C(=O)N[C@@H](CC(=O)O)C(=O)N[C@H](C)C(=O)N[C@@H](CC(=O)O)C(=O)NCC(=O)N[C@H](CO)C(=O)N[C@@H]([C@H](C)CC(=O)O)C(=O)N[C@@H](CC(=O)c2ccccc2NCC)C(=O)O[C@@H]1C (single isomer, unassigned)
- MIC [2]: 1 µg/mL
- MIC [3]: 4 µg/mL
- MIC [6]: 1 µg/mL
- Ratio [7]: 2
- MIC [8]: 1 µg/mL
- Ratio [9]: 2

Compound: CCCCCCCCCC(=O)N[C@@H](Cc1c[nH]c2ccccc12)C(=O)N[C@H](CC(N)=O)C(=O)N[C@@H](CC(=O)O)C(=O)N[C@@H]1C(=O)NCC(=O)N[C@@H](CCCN)C(=O)N[C@@H](CC(=O)O)C(=O)N[C@H](C)C(=O)N[C@@H](CC(=O)O)C(=O)NCC(=O)N[C@H](CO)C(=O)N[C@@H]([C@H](C)CC(=O)O)C(=O)N[C@@H](CC(=O)c2ccccc2NCCCCCC)C(=O)O[C@@H]1C
- fold change (FC) [10]: 4
- Activity [11]: Non-Toxic
- MIC [12]: 0.015 µg/mL
- Activity [13]: Non-Toxic
- MIC [14]: 0.03 µg/mL
- Ratio [15]: 512
- Vd [16]: 0.2 L/kg
- MIC [1]: 2 µg/mL
- solubility [17]: Soluble
- MIC [2]: 0.25 µg/mL
- Ratio [18]: >=4
- MIC [3]: 2 µg/mL
- MIC [19]: 1 µg/mL
- Ratio [20]: >=4
- survival at 10 mg/kg [21]: 25%
- Ratio [22]: >=4
- ED50 [23]: 0.29 mg/kg
- Activity [24]: ~ 100%
- MIC [6]: 0.125 µg/mL
- MIC [25]: 4 µg/mL
- Ratio [26]: >=4
- MIC [27]: 256 µg/mL
- MIC [4]: 0.5 µg/mL
- survival at 10 mg/kg [28]: 37.5%
- solubility [29]: Soluble
- MIC [30]: 0.5 µg/mL
- Ratio [7]: 4
- Activity [31]: 100%
- Activity [32]: Non-Toxic
- MIC [33]: ≤ 0.008 µg/mL
- MIC [5]: 0.5 µg/mL
- half-life [34]: 19 days
- MIC [35]: ≤ 0.008 µg/mL
- MIC [8]: 0.5 µg/mL
- Ratio [9]: 4
- Ratio [36]: 8
- MIC [37]: 0.5 µg/mL
- MIC [38]: ≤ 0.008 µg/mL
- Ratio [39]: >=4
- Activity [40]: Active
- MIC [41]: 0.5 µg/mL (≈ 0.293 µM)

Compound: CCCCCCCCCC(=O)N[C@@H](Cc1c[nH]c2ccccc12)C(=O)N[C@H](CC(N)=O)C(=O)N[C@@H](CC(=O)O)C(=O)N[C@@H]1C(=O)NCC(=O)N[C@@H](CCCN)C(=O)N[C@@H](CC(=O)O)C(=O)N[C@H](C)C(=O)N[C@@H](CC(=O)O)C(=O)NCC(=O)N[C@H](CO)C(=O)N[C@@H]([C@H](C)CC(=O)O)C(=O)N[C@@H](CC(=O)c2ccccc2NCCCCC)C(=O)O[C@@H]1C (single isomer, unassigned)
- MIC [2]: 0.5 µg/mL
- MIC [3]: 2 µg/mL
- MIC [6]: 0.125 µg/mL
- Ratio [7]: 2
- MIC [8]: 0.5 µg/mL
- Ratio [9]: 2

Compound: CCCCCCCCCC(=O)N[C@@H](Cc1c[nH]c2ccccc12)C(=O)N[C@H](CC(N)=O)C(=O)N[C@@H](CC(=O)O)C(=O)N[C@@H]1C(=O)NCC(=O)N[C@@H](CCCN)C(=O)N[C@@H](CC(=O)O)C(=O)N[C@H](C)C(=O)N[C@@H](CC(=O)O)C(=O)NCC(=O)N[C@H](CO)C(=O)N[C@@H]([C@H](C)CC(=O)O)C(=O)N[C@@H](CC(=O)c2ccccc2N)C(=O)O[C@@H]1C
- fold change (FC) [10]: 4
- Activity [11]: Non-Toxic
- MIC [12]: 1 µg/mL
- MIC [14]: 1 µg/mL
- Ratio [15]: 32
- Vd [16]: 0.115 L/kg
- MIC [1]: 8 µg/mL
- MIC [2]: 8 µg/mL
- MIC [3]: 8 µg/mL
- MIC [19]: 8 µg/mL
- ED50 [23]: 0.2 mg/kg
- MIC [6]: 2 µg/mL
- MIC [25]: 64 µg/mL
- MIC [27]: 128 µg/mL
- MIC [4]: 4 µg/mL
- MIC [30]: 4 µg/mL
- MIC [33]: 1 µg/mL
- MIC [5]: 8 µg/mL
- MIC [35]: 1 µg/mL
- MIC [8]: 2 µg/mL
- Ratio [36]: 16
- MIC [37]: 4 µg/mL
- MIC [38]: 1 µg/mL
- Activity [40]: Active
- MIC [41]: 4 µg/mL (≈ 2.47 µM)
